Reference: ChEMBL document CHEMBL1201862, “PubChem BioAssay data set” (2004)
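Method: 48-hour compound exposure of cells in 96-well plates, five concentrations, linear interpolation of endpoints. GI50 marks 50% less growth.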 The source made the active and inactive calls. No stated cut-off is given here; in the data, active = GI50 up to about 1.1 µM and inactive = higher.

Tests used:
Assay in all cases: growth of human tumour cells (NCI), 48 h
NCI-H23 = system: NCI-H23
COLO 205 = system: COLO 205
UACC-62 = system: UACC-62
EKVX = system: EKVX
OVCAR-5 = system: OVCAR-5
SK-OV-3 = system: SK-OV-3
HT-29 = system: HT-29
SNB-75 = system: SNB-75
ACHN = system: ACHN
TK-10 = system: TK-10
M14 = system: M14
A549 = system: A549
UO-31 = system: UO-31
SF-295 = system: SF-295
HOP-62 = system: HOP-62
NCI-H522 = system: NCI-H522

Measured: GI50

O=C1C2c3[nH]c4ccccc4c3[C@@H]3CCCCCCCCCCC3C2C(=O)N1c1ccccc1 (stereo partly drawn)
inactive: NCI-H23 17.5 µM | COLO 205 23 µM | UACC-62 20.1 µM | EKVX 55.1 µM | OVCAR-5 > 100 µM | SK-OV-3 10.4 µM | HT-29 27.6 µM | SNB-75 3.18 µM | ACHN 25.9 µM | TK-10 20 µM | M14 15.3 µM | A549 21.8 µM | UO-31 32.9 µM | SF-295 16.3 µM

COc1cc(C2C(Cl)C(=O)N2NC(=O)Cc2ccccc2)cc(Br)c1O (stereo not drawn)
inactive: NCI-H23 76.9 µM | COLO 205 > 100 µM | UACC-62 55 µM | EKVX 94.8 µM | OVCAR-5 > 100 µM | SK-OV-3 > 100 µM | HT-29 > 100 µM | SNB-75 64.9 µM | HOP-62 > 100 µM | NCI-H522 56 µM | ACHN > 100 µM | TK-10 > 100 µM | M14 > 100 µM | A549 > 100 µM | UO-31 64.9 µM | SF-295 > 100 µM

CCC1CCc2c(OC)ccc(OCC(=O)O)c2C1=O (stereo not drawn)
inactive: NCI-H23 > 100 µM | COLO 205 > 100 µM | UACC-62 > 100 µM | EKVX > 100 µM | OVCAR-5 > 100 µM | SK-OV-3 > 100 µM | SNB-75 > 100 µM | HOP-62 > 100 µM | NCI-H522 > 100 µM | ACHN > 100 µM | TK-10 > 100 µM | M14 > 100 µM | A549 > 100 µM | UO-31 > 100 µM | SF-295 > 100 µM

Cc1cc2c(C)nn(Cc3ccccc3)c2c(C(=O)O)c1C
inactive: NCI-H23 > 100 µM | COLO 205 > 100 µM | UACC-62 > 100 µM | EKVX > 100 µM | OVCAR-5 > 100 µM | SK-OV-3 > 100 µM | HOP-62 > 100 µM | ACHN > 100 µM | TK-10 > 100 µM | A549 > 100 µM | UO-31 > 100 µM | SF-295 > 100 µM

Cc1cc2cc(Cl)ccc2nc1C(=O)c1ccccc1
inactive: NCI-H23 > 100 µM | COLO 205 > 100 µM | UACC-62 > 100 µM | OVCAR-5 > 100 µM | SNB-75 21.3 µM | HOP-62 43.1 µM | NCI-H522 > 100 µM | ACHN > 100 µM | TK-10 > 100 µM | M14 > 100 µM | A549 > 100 µM | UO-31 > 100 µM | SF-295 27.8 µM

COc1ccc(/C=C/C(=O)c2c(-c3ccccc3)nn(C)c(=O)c2N2CCCCC2)cc1
inactive: NCI-H23 14 µM | COLO 205 16.7 µM | UACC-62 15.7 µM | EKVX 11.7 µM | SK-OV-3 21.4 µM | HT-29 14.9 µM | NCI-H522 10.7 µM | ACHN 40.1 µM | TK-10 37.1 µM | M14 20.7 µM | A549 16.8 µM | UO-31 13.9 µM | SF-295 21.6 µM

CC(=O)OC1[C@H]2c3cc4c(cc3CN3CCC(=C[C@@H]1O)C23)OCO4 (stereo partly drawn)
inactive: NCI-H23 > 100 µM | COLO 205 > 100 µM | UACC-62 53.7 µM | EKVX 34 µM | SK-OV-3 > 100 µM | HT-29 > 100 µM | SNB-75 47.6 µM | HOP-62 > 100 µM | NCI-H522 > 100 µM | ACHN 33.1 µM | TK-10 > 100 µM | M14 44.5 µM | A549 > 100 µM | UO-31 > 100 µM | SF-295 43.6 µM
